Reference: the AptaBench aptamer set (doi:10.1093/nar/gkaf219)

Tests used:
Conditions in all cases: 10 mM Tris-HCl, pH 7.4
[1] = test system: DNA aptamer or structured DNA GGGACGACGGGGATTCGGTTCGTCATTTGGCAGTGCCTCGTACGTCGTCCC
[2] = test system: DNA aptamer or structured DNA GGGACGACGGGATGTGGTGTCAGTCATGATGGGATCAAGTCGTCCC
[3] = test system: DNA aptamer or structured DNA GGGACGACGGGGGGAGTTTGTTTGTGTGGGAGGGTCCAGTCGTCCC
[4] = test system: DNA aptamer or structured DNA GGGACGACGCAGCAGTCCATCTCTCAGCGAGTTCGTCAGTCGTCCC
[5] = test system: DNA aptamer or structured DNA GGGACGACGCGTACCTGTGGTAGTCGTACGTCGTTCAAGTCGTCCC
[6] = test system: DNA aptamer or structured DNA GGGACGACGGCACGTGGTTATTCGTTGGTTGCACTGCGCTGGGAGGCAGTCGTCCC
For binding call in this document: call rule not given here.

With `CCN(CC)CC(=O)Nc1c(C)cccc1C` the binding call [1] was “no binding”.
`COc1ccc2c3c1O[C@H]1C(=O)CC[C@@]4(O)[C@@H](C2)N(C)CC[C@]314` was tested, and the Kd [2] was 3650 nM, the Kd [3] was 1750 nM and the Kd [4] was 2220 nM.
For `C=CCN1CC[C@]23c4c5ccc(O)c4O[C@H]2C(=O)CC[C@@]3(O)[C@H]1C5`, the binding call [5] was “no binding”.
For `NCCc1ccc(O)c(O)c1`, the binding call [1] was “no binding”.
Work on `CC(=O)Oc1ccc2c3c1O[C@H]1[C@@H](OC(C)=O)C=C[C@H]4[C@@H](C2)N(C)CC[C@@]341` yielded a Kd [5] of 4520 nM.
In the case of `CN[C@@H](C)Cc1ccccc1`, the binding call [4] is reported as “no binding” and the Kd [6] is reported as 6100 nM.
In the case of `NCC(O)c1ccc(O)c(O)c1` (stereo not given), the binding call [1] is reported as “no binding” and the binding call [6] is reported as “binds”.
With `c1ccc([C@H]2CN3CCSC3=N2)cc1` the binding call [3] was “no binding”.
In the case of `O=C1CC[C@@]2(O)[C@H]3Cc4ccc(O)c5c4[C@@]2(CCN3CC2CC2)[C@H]1O5`, the binding call [5] is reported as “no binding”.
With `CNC(C)Cc1ccc2c(c1)OCO2` (stereo not given) the binding call [6] was “binds”.
`CN1CC[C@]23c4c5ccc(O)c4O[C@H]2[C@@H](O)C=C[C@H]3[C@H]1C5` showed a Kd [1] of 1500 nM.
`CC(N)Cc1ccccc1` (stereo not given) was tested, and the binding call [6] was “binds”.
With `CCN(CC)CCOC(=O)c1ccc(N)cc1` the binding call [5] was “no binding” and the binding call [1] was “no binding”.
`CC(=O)Nc1ccc(O)cc1` was tested, and the binding call [2] was “no binding”, the binding call [3] was “binds” and the binding call [5] was “no binding”. For the same molecule, the binding call [4] was “binds”.
`OC[C@@H](O)[C@@H](O)[C@H](O)[C@H](O)CO` was tested, and the binding call [3] was “no binding”.
`Cn1c(=O)c2c(ncn2C)n(C)c1=O` was tested, and the binding call [3] was “binds” and the binding call [4] was “no binding”.
